Laboratory results: US10175228B2, “Method of using transmembrane channel-like protein 6 (TMC6) protein to identify substances affecting salty taste” (priority 2016, dated 2019)

Experiments:
[1] = tested on: chimeric TMC6 protein of mouse and Aotus nancymaae; assay: Calcium imaging of CHO-K1 cells expressing the mouse/Aotus nancymaae chimeric TMC6 gene; assay type: cell-based; conditions: stimulation with high-concentration NaCl solution for 60 sec, 21 cells
Source text: The nucleotide sequence of the CDS of the chimeric TMC6 gene cloned into Mouse-Aotus nancymaae chimera TMC6 2A-YC260TM in pcDNA3.1(−) was confirmed to consist of an upstream part identical to positions 1 to 45 of the nucleotide sequence of mRNA of the mouse TMC6 gene (NM_145439) and a downstream part identical to positions 52 to 2421 of the nucleotide sequence of mRNA of the Aotus nancymaae TMC6 gene (XM 012453598) registered in NCBI by sequencing analysis. The chimeric TMC6 gene encodes a chimeric TMC6 protein consisting of the amino acid sequence of positions 1 to 15 of the mouse TMC6 protein (SEQ ID NO: 26) and the amino acid sequence of positions 18 to 807 of the Aotus nancymaae TMC6 protein (SEQ ID NO: 1). The nucleotide sequence of Mouse-Aotus nancymaae chimera TMC6 2A-YC260TM in pcDNA3.1(−) is shown as SEQ ID NO: 63. […]
CHO-K1 cells were transfected with Macaca mulatta TMC6-2A-YC260TM in pcDNA3.1(−), Pongo abelii TMC6-2A-YC260TM in pcDNA3.1(−), Mouse-Aotus nancymaae chimera TMC6 2A-YC260TM in pcDNA3.1(−), or YC2.60-pcDNA, to prepare TMC6-expressing cells (cells expressing the Macaca mulatta TMC6 gene, the Pongo abelii TMC6 gene, or the mouse/Aotus nancymaae chimeric TMC6 gene, in combination with the YC2.60 gene) and control cells (cells expressing the YC2.60 gene). The prepared cells were stimulated, and activation of the cells was measured. […]

[2] = tested on: C57BL/6J mouse and knockout mice; assay: NaCl palatability test, two-bottle choice method; conditions: for NaCl palatability: 96 hr
Description: Thus, an NaCl palatability test was carried out by using the wild-type C57BL/6J mouse and the knockout mice obtained in Example 1.
The NaCl palatability test was carried out by the two-bottle choice method (abbreviated as “two-bottle method”) for 96 hr. That is, two 11-mL plastic bottles (water dispenser bottles) were filled with a test aqueous solution, moisture outside of the bottles was wiped out and dried, the weights thereof (the total weight of the bottle, a water dispenser tube made of stainless, and the aqueous solution, for each bottle) were measured, and the bottles were inserted into a metal lid of a breeding cage at an angle of approximately 30 degrees. […] The positions of the bottles were laterally interchanged every day. The weights of the bottles were measured every 24 hours, to calculate the reduced amounts of the aqueous solutions. Separately, four water dispenser bottles filled with deionized water were located on a vacant breeding cage, and changes of the weights were measured every day, to calculate an average value of the sum of the evaporation amount of the aqueous solution and the dropped amount of the aqueous solution due to experimental operation (approximately 0.05 g to 0.06 g). To prevent dropping of the aqueous solutions due to rocking of the lid of the breeding cage and the bottles by the mice, a transparent acryl board (10 cm×15 cm×1 cm, 180 g) was located on the bottles as a weight. The average value of the sum of the evaporation and dropped amounts of each aqueous solution was subtracted from the reduced amount of the same, and the resulting value was regarded as the intake amount of each aqueous solution. The ratio of the intake amount of the NaCl aqueous solution with respect to the total intake amount of the control aqueous solution and the NaCl aqueous solution was calculated and regarded as NaCl palatability.

SMILES: [Cl-].[Na+] [NaCl, sodium chloride]
- change of average YFP/CFP value (intracellular calcium concentration) [1]: increase
- NaCl palatability ([2]; hetero knockout mouse of the TMC6 gene (Tmc6 +/−), 100 mM NaCl + 30 μM amiloride): high
- NaCl palatability ([2]; homo knockout mouse of the TMC3 gene (Tmc3 −/−), 100 mM NaCl + 30 μM amiloride): high
- NaCl palatability ([2]; homo knockout mouse of the TMC6 gene (Tmc6 −/−), 100 mM NaCl + 30 μM amiloride, compared with the other subject mice (P<0.05 or P<0.01)): remarkably reduced
- NaCl palatability ([2]; homo knockout mouse of the TMC8 gene (Tmc8 −/−), 100 mM NaCl + 30 μM amiloride): high
- palatability for a NaCl aqueous solution ([2]; wild-type C57BL/6J mouse fed D12450B (0.1% sodium), without amiloride): slightly higher than that for water
- NaCl palatability ([2]; wild-type C57BL/6J mouse, 100 mM NaCl, in the presence of 30 μM amiloride): remarkable and high
